Data as given in ChEMBL document CHEMBL1201862, “PubChem BioAssay data set” (2004).
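Following 48 hours of exposure in 96-well plates, responses at five concentrations were used to interpolate endpoints linearly. GI50 marks 50% less growth.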 Active and inactive are the calls of the source. Rule as the data show it: active = GI50 up to about 1.1 µM and inactive = higher.

Tests used:
Experiment in all cases: NCI anticancer screen, dose series, 48 h
A549 = tested on: A549
ACHN = tested on: ACHN
CAKI-1 = tested on: CAKI-1
CCRF-CEM = tested on: CCRF-CEM
COLO 205 = tested on: COLO 205
HL-60 = tested on: HL-60
HT-29 = tested on: HT-29
NCI-H226 = tested on: NCI-H226
NCI-H23 = tested on: NCI-H23
OVCAR-3 = tested on: OVCAR-3
RPMI-8226 = tested on: RPMI-8226
SF-268 = tested on: SF-268
SN12C = tested on: SN12C
SNB-75 = tested on: SNB-75
SW-620 = tested on: SW-620
TK-10 = tested on: TK-10
UACC-62 = tested on: UACC-62
MDA-MB-231 = tested on: MDA-MB-231
MDA-MB-435 = tested on: MDA-MB-435

Compound | GI50 (A549) | GI50 (ACHN) | GI50 (CAKI-1) | GI50 (CCRF-CEM) | GI50 (COLO 205) | GI50 (HL-60) | GI50 (HT-29) | GI50 (NCI-H226) | GI50 (NCI-H23) | GI50 (OVCAR-3) | GI50 (RPMI-8226) | GI50 (SF-268) | GI50 (SN12C) | GI50 (SNB-75) | GI50 (SW-620) | GI50 (TK-10) | GI50 (UACC-62) | GI50 (MDA-MB-231) | GI50 (MDA-MB-435)
CC1=C(/C=C/C(C)=C/C=C/C(C)=C/C=C/C=C(C)/C=C/C=C(C)/C=C/C2=C(C)C(=O)C(O)CC2(C)C)C(C)(C)CC(O)C1=O (stereo not given) | > 100 µM (inactive) | > 100 µM (inactive) | > 100 µM (inactive) | > 100 µM (inactive) | > 100 µM (inactive) | > 100 µM (inactive) | > 100 µM (inactive) | > 100 µM (inactive) | > 100 µM (inactive) | > 100 µM (inactive) | > 100 µM (inactive) | > 100 µM (inactive) | > 100 µM (inactive) | > 100 µM (inactive) | > 100 µM (inactive) | > 100 µM (inactive) | > 100 µM (inactive) | – | –
CCOC(=O)/N=c1\ss/c(=N\C(=S)N(C)C)n1-c1ccccc1 | 1.11 µM (active) | 52.1 µM (inactive) | 48 µM (inactive) | 29.6 µM (inactive) | 3.19 µM (inactive) | > 10 µM (inactive) | 3.17 µM (inactive) | > 10 µM (inactive) | 67.5 µM (inactive) | 0.394 µM (active) | 7.48 µM (inactive) | 2.06 µM (inactive) | > 10 µM (inactive) | 6.03 µM (inactive) | > 10 µM (inactive) | 63 µM (inactive) | 72.3 µM (inactive) | – | –
CCSC1=N/C(=C\c2ccco2)C(=O)N1 | > 100 µM (inactive) | > 100 µM (inactive) | – | > 100 µM (inactive) | > 100 µM (inactive) | – | > 100 µM (inactive) | > 100 µM (inactive) | > 100 µM (inactive) | > 100 µM (inactive) | > 100 µM (inactive) | > 100 µM (inactive) | > 100 µM (inactive) | > 100 µM (inactive) | > 100 µM (inactive) | > 100 µM (inactive) | > 100 µM (inactive) | > 100 µM (inactive) | > 100 µM (inactive)
CC(=O)OC1C2CCC3CC2C2(SCCS2)C31 (stereo not given) | > 100 µM (inactive) | > 100 µM (inactive) | – | – | > 100 µM (inactive) | 70.8 µM (inactive) | > 100 µM (inactive) | > 100 µM (inactive) | > 100 µM (inactive) | > 100 µM (inactive) | > 100 µM (inactive) | > 100 µM (inactive) | > 100 µM (inactive) | – | > 100 µM (inactive) | > 100 µM (inactive) | > 100 µM (inactive) | 51.9 µM (inactive) | > 100 µM (inactive)
CC(=O)c1nc(C#N)c(N)o1 | > 100 µM (inactive) | > 100 µM (inactive) | > 100 µM (inactive) | > 100 µM (inactive) | > 100 µM (inactive) | – | > 100 µM (inactive) | > 100 µM (inactive) | > 100 µM (inactive) | > 100 µM (inactive) | > 100 µM (inactive) | > 100 µM (inactive) | > 100 µM (inactive) | > 100 µM (inactive) | > 100 µM (inactive) | > 100 µM (inactive) | > 100 µM (inactive) | > 100 µM (inactive) | > 100 µM (inactive)
CCOC(=O)/C(C)=C\[C@@]1(C)O[C@@H](C)[C@@](C)(OC(C)=O)[C@@H]1OC(C)=O | 45.4 µM (inactive) | 41 µM (inactive) | 33 µM (inactive) | 33.5 µM (inactive) | 30 µM (inactive) | 39.6 µM (inactive) | 40.6 µM (inactive) | 39.9 µM (inactive) | 21.5 µM (inactive) | 33.4 µM (inactive) | 51.8 µM (inactive) | 39.3 µM (inactive) | 57.1 µM (inactive) | – | 67.5 µM (inactive) | 78.9 µM (inactive) | 49.9 µM (inactive) | 57.5 µM (inactive) | 41.7 µM (inactive)
COc1c(-c2ccc3c(c2)OCO3)oc2cc(O)cc(O)c2c1=O | 47.3 µM (inactive) | 27 µM (inactive) | 27.7 µM (inactive) | 41.4 µM (inactive) | > 100 µM (inactive) | 41.5 µM (inactive) | 36.6 µM (inactive) | > 100 µM (inactive) | 63.4 µM (inactive) | – | 34 µM (inactive) | 32.6 µM (inactive) | 51.1 µM (inactive) | 13.4 µM (inactive) | – | 95.1 µM (inactive) | 46.6 µM (inactive) | 97.7 µM (inactive) | 45.7 µM (inactive)
CCO[C@@H]1C2C=CC(C2)[C@H]1[N+](=O)[O-] (stereo not given in full) | > 100 µM (inactive) | > 100 µM (inactive) | > 100 µM (inactive) | 36.9 µM (inactive) | > 100 µM (inactive) | 47.3 µM (inactive) | > 100 µM (inactive) | > 100 µM (inactive) | > 100 µM (inactive) | > 100 µM (inactive) | 72.1 µM (inactive) | > 100 µM (inactive) | > 100 µM (inactive) | 64.9 µM (inactive) | > 100 µM (inactive) | > 100 µM (inactive) | > 100 µM (inactive) | – | –
COc1ccc(/C=N/N=C(\N)NO)cc1F | 14.3 µM (inactive) | 10.1 µM (inactive) | 14.5 µM (inactive) | 33.7 µM (inactive) | 10.5 µM (inactive) | 27.4 µM (inactive) | 12.9 µM (inactive) | 5.42 µM (inactive) | 29.9 µM (inactive) | 53 µM (inactive) | 28.4 µM (inactive) | 17.1 µM (inactive) | 26.7 µM (inactive) | 27.4 µM (inactive) | 41.2 µM (inactive) | 43 µM (inactive) | 12.9 µM (inactive) | – | –
O=C(CC1=Nc2nnc(-c3nnc4n3C(=O)C(CC(=O)c3cccnc3)=N4)n2C1=O)c1cccnc1 | > 100 µM (inactive) | > 100 µM (inactive) | > 100 µM (inactive) | > 100 µM (inactive) | > 100 µM (inactive) | > 100 µM (inactive) | > 100 µM (inactive) | > 100 µM (inactive) | > 100 µM (inactive) | > 100 µM (inactive) | > 100 µM (inactive) | > 100 µM (inactive) | > 100 µM (inactive) | > 100 µM (inactive) | > 100 µM (inactive) | > 100 µM (inactive) | > 100 µM (inactive) | – | –
N#CCCC1(CCC#N)CCc2ccccc2C1=O | – | > 100 µM (inactive) | > 100 µM (inactive) | > 100 µM (inactive) | – | > 100 µM (inactive) | > 100 µM (inactive) | > 100 µM (inactive) | > 100 µM (inactive) | > 100 µM (inactive) | > 100 µM (inactive) | > 100 µM (inactive) | > 100 µM (inactive) | > 100 µM (inactive) | > 100 µM (inactive) | > 100 µM (inactive) | > 100 µM (inactive) | > 100 µM (inactive) | > 100 µM (inactive)
COc1ccc(CC(C)N)cc1 (stereo not given) [PARA-METHOXYAMPHETAMINE] | > 100 µM (inactive) | > 100 µM (inactive) | > 100 µM (inactive) | > 100 µM (inactive) | > 100 µM (inactive) | > 100 µM (inactive) | > 100 µM (inactive) | > 100 µM (inactive) | > 100 µM (inactive) | > 100 µM (inactive) | > 100 µM (inactive) | > 100 µM (inactive) | > 100 µM (inactive) | > 100 µM (inactive) | > 100 µM (inactive) | > 100 µM (inactive) | > 100 µM (inactive) | – | –
